| SMILES | melting point |
| --- | --- |
| CCS(=O)(=O)N[C@H](C(=O)NCCc1cc(Br)c(OCC#Cc2ccc(Cl)cc2)c(OC)c1)C(C)C | 109 to 111 °C |
| CCS(=O)(=O)N[C@H](C(=O)NCCc1cc(Br)c(O)c(OC)c1)C(C)C | 145 to 147 °C |
